Results as given in patent US9040261B2, “Compounds as L-cystine crystallization inhibitors and uses thereof” (NEW YORK UNIVERSITY, priority 2009, dated 2015).
“Also recorded” adds a separate entry of the source.

Columns and labels:
[1] = Real time in situ AFM step velocity measurements, static conditions
Protocol: A Digital Instruments (Santa Barbara, Calif.) Nanoscope IIIa Multimode system was used for topographical and lattice imaging. All measurements were performed in contact mode using Veeco NP_B Si3N4 cantilever tips with a spring constant of 0.12N/m (triangular, 196 μm length, 41 μm width) on a glass cantilever holder, and a liquid cell was created for in situ step velocity measurements. All L-cystine crystals for AFM measurements were prepared by method 1. Crystals were transferred onto an AFM specimen disk coated with partially cured (1 hr) UV-curable optical cement (Type SK-9, EMS Acquisition Corp.) by gently pressing the disk against hexagonal platelets or L-cystine needles isolated by filtration (Whatman Nuclepore membrane, 8 μm). The (0001) face of hexagonal platelets was exposed normal to the disk for AFM analysis with growth occurring along equivalent {1010} faces in the lateral directions, while the sides of L-cystine needles were exposed normal to the disc. The partially cured polymer with adhered crystals was completely cured by additional UV radiation (2 hrs) prior to analysis. Measurements of individual step heights for hexagonal L-cystine crystals were acquired in air (contact mode) at a scan rate of 1.00 Hz and 256 samples per line over a 15×15 μm^2 surface area. Integral and proportional gains were set to the highest possible values without obtaining feedback. Four hexagonal crystals (5 areas per crystal) were analyzed for statistical step height distributions, which were calculated from >10^3 individual steps. Lattice-resolved images of crystal surfaces were acquired in water (contact mode) using a scan rate of 112 Hz over a 12×12 nm^2 area.
Real time in situ step velocity measurements of L-cystine growth were assessed along six structurally-equivalent {1010} faces of the hexagonal structure. A liquid cell was created with the glass cantilever tip holder, and working solutions were injected through a 1-mL syringe. Prior to injecting the growth medium (i.e. supersaturated L-cystine solution), crystals were etched with deionized water in the fluid cell for one hour to remove amorphous deposits or impurities that may be present on the surface. Supersaturated solutions (0.5 g/L) were generated by adding L-cystine to deionized water, boiling the solution on a heating mantle for 20 min to completely dissolve the solute, and allowing the solution to cool for 20 min on the heating mantle before transferring the solution (via syringe) to the AFM fluid cell. […]
The effect of additives on crystal growth rates was investigated. […] For each measurement, growth was first assessed in the absence of additive, then in the presence of additive on the identical area of the crystal surface to analyze relative changes in step velocity. […]

[2] = dosages between 100 mg/L and 20 g/L per day; ATP, reactive oxygen species levels, cell viability; cited from earlier work
[3] = AFM step velocity and hillock imaging with L-cystine diesters under continuous flow
Protocol: Atomic force microscopy was performed with a Digital Instruments (Santa Barbara, Calif.) Nanoscope Ma Multimode system. All measurements were performed in a cell designed to contain liquids for in situ imaging, including step velocity measurements. All measurements were performed in contact mode using Veeco NP_B Si3N4 tips on silicon nitride cantilevers with a spring constant of 0.12N/m (triangular, 196 μm length, 41 μm width). L-cystine crystals (hexagonal form) were transferred onto an AFM specimen disk coated with partially cured (1 hr) UV-curable optical cement (Type SK-9, EMS Acquisition Corp.) by gently pressing the disk against hexagonal platelets collected by filtration (Whatman Nuclepore membrane, 8 μm). The (001) faces of the hexagonal plates naturally aligned parallel with the specimen disk such that the velocity of the equivalent {100} steps could be measured readily by AFM. The partially cured polymer with the adhered crystals was cured completely by additional UV radiation (2 hrs) prior to analysis. The mounted L-cystine crystals were etched slightly by immersion in deionized water for 30 sec at 60° C. to remove amorphous deposits or impurities that may be present on the surface. Step velocities on the hexagonal L-cystine crystals were measured by AFM using a fluid cell containing an aqueous solution, supersaturated with L-cystine (2 mM), introduced to the cell via a syringe. Step velocities were determined by measuring the distance of the steps from a reference point, usually the dislocation core, in consecutive deflection images acquired at periodic intervals, ranging from 9-14 sec. Measurements were acquired under continuous flow of fresh solution in order to maintain constant supersaturation and additive concentration. […] The step velocities, which correspond to the crystal growth rates, were measured with and without inhibitor for each pair.

COC(=O)[C@@H](N)CSSC[C@H](N)C(=O)OC.Cl.Cl [CDME, Cystine Dimethyl Ester Dihydrochloride]
advancement of higher {1010} steps ([1]; 5.0 g/L CDME, 0.5 g/L L-cystine, step heights >0.6 nm, larger than 1 nm, Dihydrochloride): suppresses; also recorded: completely suppressed | Step velocity of 1-nm steps ([1]; large excess of CDME (5 g/L), 29 nm/min in the absence of additive): 7 nm/min | toxicity in cell culture and in vivo animal studies [2]: possible adverse affects | order of step roughening, corresponding to the trend in inhibition ([3]; 0.015 mM inhibitor, 2 mM L-cystine): L-CDME>L-CDEE>L-CDIE>L-CDTE | inhibition of step velocity compared among four L-cystine diesters ([3]; 0.015 M inhibitor): best inhibitor
